Results on one compound are retold here after paper PMC9015527 (Chemistry (Weinheim an Der Bergstrasse, Germany), 2021).

Series [1] is described as follows: in vitro. The conditions noted are these: simian (monkey).
Series [2] can be described thus: in vitro. The conditions noted are these: human, Caco-2.
The test system of series [3] is SARS-CoV-2 isolate MUC-IMB-1/2020. Description: microbe, parasite or virus in culture. It counts as cell-based.
Series [4] has the same test system. It counts as cell-based.

A value given as a limit tells only on which side of the number the result lay.

A word on the EC50: it is the midpoint of the concentration-response curve.

Take `CCN(CC)CCCC(C)Nc1ccnc2cc(Cl)ccc12` (stereo not shown) [CQ, chloroquine]: the CC50 in the series “in vitro [1]” (CC50 (Vero 76, mAb-S)) is above 100 µM; in “in vitro [1]” (CC50 (Vero 76, mAb-dsRNA)), above 30 µM; in “in vitro [2]”, 41.7 ± 2.5 µM. Also, in the series on SARS-CoV-2 d6-YFP, the “SI (Caco-2)” value is 3.2. Moreover, the “SI (Vero 76, mAb-dsRNA)” value in series [3] was above 14. Moreover, the EC50 in series [3] (Severe acute respiratory syndrome coronavirus 2, Vero 76, read-out: EC50 (Vero 76, mAb-dsRNA)) came to 2.2 ± 0.9 µM. In series [4], the “SI (Vero 76, mAb-S)” value is reported as above 32.3.
